This note sets out measurements from patent publication US20050192261A1, “Methods and reagents for the treatment of immunoinflammatory disorders” (priority 2003, published 2005).

In this assay the test system is TNFα secretion in white blood cells from human buffy coat stimulated with phorbol 12-myristate 13-acetate and ionomycin. As to the kind of experiment: TNFα secretion assay. The settings on record: for inhibition at 0.5 µM / inhibition at 1 µM / inhibition at 16 µM / inhibition at 31 µM: Homo sapiens.

Structures can show the parent of a compound that is named as a salt. Where two headings read alike, the source gives them in different places.

Protocol: Drugs were added to the indicated concentration. […] The plate was then washed again with 0.1% Tween 20/PBS. An HRP-luminescent substrate was added to each well, and the light intensity of each well was measured using a plate luminometer.

For `C[C@]12C=CC(=O)C=C1CC[C@@H]1[C@@H]2[C@@H](O)C[C@@]2(C)[C@H]1CC[C@]2(O)C(=O)CO` [Prednisolone, prednisolone], the inhibition at 0.5 µM reads like this: (read-out: % inhibition of TNFα secretion, Prednisolone 0.5 μM, Tripelennamine HCl μM r5-r13: 0,0.31,0.61,1.2,2.4,4.9,9.8,20,39) 35%; (read-out: inhibition of TNFα secretion, prednisolone 0.5 μM, azatadine maleate r5-r13: 0,0.27,0.54,1.1,2.1,4.3,8.6,17,34 μM) 35%; (read-out: inhibition of TNFα secretion, prednisolone 0.5 μM, bromodiphenhydramine HCl r5-r13: 0,0.21,0.43,0.85,1.7,3.4,6.8,14,27 μM) 34%; (read-out: inhibition of TNFα secretion, prednisolone 0.5 μM, chlorpheniramine maleate r5-r13: 0,0.2,0.4,0.8,1.6,3.2,6.4,13,26 μM) 28%; (read-out: inhibition of TNFα secretion, prednisolone 0.5 μM, clemizole HCl r5-r13: 0,0.22,0.43,0.86,1.7,3.5,6.9,14,28 μM) 37%; (read-out: inhibition of TNFα secretion, prednisolone 0.5 μM, doxylamine succinate r5-r13: 0,0.2,0.4,0.8,1.6,3.2,6.4,13,26 μM) 32%. In addition, the inhibition at 0.5 µM by setting is: (read-out: inhibition of TNFα secretion, prednisolone 0.5 μM, fexofenadine HCl r5-r13: 0,0.073,0.15,0.29,0.58,1.2,2.3,4.6,9.3 μM) 45%; (read-out: inhibition of TNFα secretion, prednisolone 0.5 μM, loratadine r5-r13: 0,0.2,0.41,0.82,1.6,3.3,6.5,13,26 μM) 29%; (read-out: inhibition of TNFα secretion, prednisolone 0.5 μM, meclizine HCl r5-r13: 0,0.32,0.63,1.3,2.5,5.1,10,20,41 μM) 36%; (read-out: inhibition of TNFα secretion, prednisolone 0.5 μM, promethazine HCl r5-r13: 0,0.24,0.49,0.97,1.9,3.9,7.8,16,31 μM) 32%; (read-out: inhibition of TNFα secretion, prednisolone 0.5 μM, pyrilamine maleate r5-r13: 0,0.19,0.38,0.76,1.5,3,6.1,12,24 μM) 24%; (read-out: percent inhibition of TNFα secretion, Prednisolone 0.5 μM, Bromodiphenhydramine HCl μM r5-r13: 0,0.21,0.43,0.85,1.7,3.4,6.8,14,27) 34%. For the same molecule, the inhibition at 0.5 µM is 37% (read-out: percent inhibition of TNFα secretion, Prednisolone 0.5 μM, Clemizole μM r5-r13: 0,0.22,0.43,0.86,1.7,3.5,6.9,14,28); 29% (read-out: percent inhibition of TNFα secretion, Prednisolone 0.5 μM, Loratadine μM r5-r13: 0,0.2,0.41,0.82,1.6,3.3,6.5,13,26); 32% (read-out: percent inhibition of TNFα secretion, Prednisolone 0.5 μM, Promethazine HCl μM r5-r13: 0,0.24,0.49,0.97,1.9,3.9,7.8,16,31). The inhibition at 1 µM by setting is: (read-out: % inhibition of TNFα secretion, Prednisolone 1 μM, Tripelennamine HCl μM r5-r13: 0,0.31,0.61,1.2,2.4,4.9,9.8,20,39) 40%; (read-out: inhibition of TNFα secretion, prednisolone 1 μM, azatadine maleate r5-r13: 0,0.27,0.54,1.1,2.1,4.3,8.6,17,34 μM) 43%; (read-out: inhibition of TNFα secretion, prednisolone 1 μM, bromodiphenhydramine HCl r5-r13: 0,0.21,0.43,0.85,1.7,3.4,6.8,14,27 μM) 37%; (read-out: inhibition of TNFα secretion, prednisolone 1 μM, cetrizine HCl r5-r13: 0,0.2,0.4,0.8,1.6,3.2,6.4,13,26 μM) 40%; (read-out: inhibition of TNFα secretion, prednisolone 1 μM, chlorpheniramine maleate r5-r13: 0,0.2,0.4,0.8,1.6,3.2,6.4,13,26 μM) 39%; (read-out: inhibition of TNFα secretion, prednisolone 1 μM, clemizole HCl r5-r13: 0,0.22,0.43,0.86,1.7,3.5,6.9,14,28 μM) 40%. In addition, the inhibition at 1 µM by setting is: (read-out: inhibition of TNFα secretion, prednisolone 1 μM, cyproheptadine HCl r5-r13: 0,0.24,0.48,0.96,1.9,3.9,7.7,15,31 μM) 39%; (read-out: inhibition of TNFα secretion, prednisolone 1 μM, doxylamine succinate r5-r13: 0,0.2,0.4,0.8,1.6,3.2,6.4,13,26 μM) 35%; (read-out: inhibition of TNFα secretion, prednisolone 1 μM, fexofenadine HCl r5-r13: 0,0.073,0.15,0.29,0.58,1.2,2.3,4.6,9.3 μM) 45%; (read-out: inhibition of TNFα secretion, prednisolone 1 μM, loratadine r5-r13: 0,0.2,0.41,0.82,1.6,3.3,6.5,13,26 μM) 40%; (read-out: inhibition of TNFα secretion, prednisolone 1 μM, meclizine HCl r5-r13: 0,0.32,0.63,1.3,2.5,5.1,10,20,41 μM) 44%; (read-out: inhibition of TNFα secretion, prednisolone 1 μM, promethazine HCl r5-r13: 0,0.24,0.49,0.97,1.9,3.9,7.8,16,31 μM) 39%. Moreover, the inhibition at 1 µM came to 31% (read-out: inhibition of TNFα secretion, prednisolone 1 μM, pyrilamine maleate r5-r13: 0,0.19,0.38,0.76,1.5,3,6.1,12,24 μM); 39% (read-out: inhibition of TNFα secretion, prednisolone 1 μM, thiethylperazine maleate r5-r13: 0,0.2,0.39,0.78,1.6,3.1,6.3,13,25 μM); 37% (read-out: percent inhibition of TNFα secretion, Prednisolone 1 μM, Bromodiphenhydramine HCl μM r5-r13: 0,0.21,0.43,0.85,1.7,3.4,6.8,14,27); 40% (read-out: percent inhibition of TNFα secretion, Prednisolone 1 μM, Clemizole μM r5-r13: 0,0.22,0.43,0.86,1.7,3.5,6.9,14,28); 39% (read-out: percent inhibition of TNFα secretion, Prednisolone 1 μM, Cyproheptadine μM r5-r13: 0,0.24,0.48,0.96,1.9,3.9,7.7,15,31); 40% (read-out: percent inhibition of TNFα secretion, Prednisolone 1 μM, Loratadine μM r5-r13: 0,0.2,0.41,0.82,1.6,3.3,6.5,13,26). The inhibition at 1 µM was 39% (read-out: percent inhibition of TNFα secretion, Prednisolone 1 μM, Promethazine HCl μM r5-r13: 0,0.24,0.49,0.97,1.9,3.9,7.8,16,31) and 39% (read-out: percent inhibition of TNFα secretion, Prednisolone 1 μM, Thiethylperazine μM r5-r13: 0,0.2,0.39,0.78,1.6,3.1,6.3,13,25).
As for `CC(CN1c2ccccc2Sc2ccccc21)N(C)C` (stereo not drawn) [Promethazine HCl, promethazine], the inhibition at 16 µM is 30.4% (read-out: percent inhibition (dose matrix), Table 99, Promethazine HCl 16 μM, Amoxapine 0-25 μM); 30.8% (read-out: percent inhibition (dose matrix), Table 100, Promethazine HCl 16 μM, Fluoxetine HCl 0-29 μM); 31% (read-out: percent inhibition (dose matrix), Table 101, Promethazine HCl 16 μM, NOrtriptyline HCl 0-33 μM per row (c1)); 36.7% (read-out: percent inhibition (dose matrix), Table 102, Promethazine HCl 16 μM, Paroxetine HCl 0-27 μM per row (c1)); 22% (read-out: percent inhibition (dose matrix), Table 105, Promethazine HCl 16 μM, Fluoxetine HCl 0-29 μM); 60.4% (read-out: percent inhibition of TNFα secretion, Promethazine HCl 16 μM, Amoxapine μM r5-r13: 0,0.2,0.4,0.8,1.6,3.2,6.4,13,25). Besides, the inhibition at 16 µM was 42.8% (read-out: percent inhibition of TNFα secretion, Promethazine HCl 16 μM, Desipramine HCl: 0/0.25/0.5/1/2/4/8/16/32 μM); 65.3% (read-out: percent inhibition of TNFα secretion, Promethazine HCl 16 μM, Fluoxetine HCl μM r5-r13: 0,0.23,0.45,0.9,1.8,3.6,7.2,14,29); 57.1% (read-out: percent inhibition of TNFα secretion, Promethazine HCl 16 μM, Paroxetine HCl μM by row r5-r13: 0/0.21/0.42/0.83/1.7/3.3/6.7/13/27); 40% (read-out: percent inhibition of TNFα secretion, Promethazine HCl 16 μM, Sertraline HCl by grid row r5-r13: 0/0.25/0.5/1/2/4/7.9/16/32 μM). Also, the inhibition at 31 µM reads like this: (read-out: percent inhibition (dose matrix), Table 99, Promethazine HCl 31 μM, Amoxapine 0-25 μM) 80.5%; (read-out: percent inhibition (dose matrix), Table 100, Promethazine HCl 31 μM, Fluoxetine HCl 0-29 μM) 69.5%; (read-out: percent inhibition (dose matrix), Table 101, Promethazine HCl 31 μM, NOrtriptyline HCl 0-33 μM per row (c1)) 69.4%; (read-out: percent inhibition (dose matrix), Table 102, Promethazine HCl 31 μM, Paroxetine HCl 0-27 μM per row (c1)) 78.8%; (read-out: percent inhibition (dose matrix), Table 105, Promethazine HCl 31 μM, Fluoxetine HCl 0-29 μM) 62.3%; (read-out: percent inhibition of TNFα secretion, Promethazine HCl 31 μM, Amoxapine μM r5-r13: 0,0.2,0.4,0.8,1.6,3.2,6.4,13,25) 85.4%. Moreover, the inhibition at 31 µM amounted to 75.7% (read-out: percent inhibition of TNFα secretion, Promethazine HCl 31 μM, Desipramine HCl: 0/0.25/0.5/1/2/4/8/16/32 μM); 87% (read-out: percent inhibition of TNFα secretion, Promethazine HCl 31 μM, Fluoxetine HCl μM r5-r13: 0,0.23,0.45,0.9,1.8,3.6,7.2,14,29); 84.2% (read-out: percent inhibition of TNFα secretion, Promethazine HCl 31 μM, Paroxetine HCl μM by row r5-r13: 0/0.21/0.42/0.83/1.7/3.3/6.7/13/27); 72.1% (read-out: percent inhibition of TNFα secretion, Promethazine HCl 31 μM, Sertraline HCl by grid row r5-r13: 0/0.25/0.5/1/2/4/7.9/16/32 μM). In addition, the “inhibition of TNFα secretion” value (prednisolone 1 μM, promethazine HCl r5-r13: 0,0.24,0.49,0.97,1.9,3.9,7.8,16,31 μM) was determined as 38.
For `COc1ccc(CN(CCN(C)C)c2ccccn2)cc1` [Pyrilamine Maleate], the “inhibition of TNFα secretion” value (prednisolone […], pyrilamine maleate r5-r13: 0,0.19,0.38,0.76,1.5,3,6.1,12,24 μM) was 20.
